Read-outs that look alike come from different tables or passages of the source.
Experiments:
[1] = Photoluminescence properties of the probe (spectra, Stokes' shift, lifetime, extinction); format: physicochemical
Text: Photoluminescence may be characterized by a number of parameters, including extinction coefficient, excitation and emission spectrum, Stokes' shift, luminescence lifetime, and quantum yield. An extinction coefficient is a wavelength-dependent measure of the absorbing power of a luminophore. An excitation spectrum is the dependence of emission intensity upon the excitation wavelength, measured at a single constant emission wavelength. An emission spectrum is the wavelength distribution of the emission, measured after excitation with a single constant excitation wavelength. A Stokes' shift is the difference in wavelengths between the maximum of the emission spectrum and the maximum of the absorption spectrum. A luminescence lifetime is the average time that a luminophore spends in the excited state prior to returning to the ground state. A quantum yield is the ratio of the number of photons emitted to the number of photons absorbed by a luminophore.

[2] = Intrinsic polarization from excitation polarization spectra in vitrified solution; format: physicochemical; settings: for fundamental anisotropy r0: corresponding to the intrinsic polarization; for intrinsic polarization P0: excitation polarization spectra in vitrified solution (glycerol: water=6:4; −55° C.)
Text: Aspects of the invention include the use of selected long-lifetime metal-ligand complexes in luminescence polarization assays. Here, as elsewhere in the application, polarization assays encompass any assays involving detection of polarized light, including steady-steady and time-resolved assays, and computation of polarization and anisotropy functions, among others. […] Here, the invention was used without limitation to monitor interactions between human serum albumin (HSA) and goat-anti-HSA (IgG) antibodies. The HSA was labeled with a ruthenium-ligand complex polarization probe, Sunnyvale Red™ (SVR™), as described elsewhere in this application. […] These values were determined by measuring the excitation polarization spectra in vitrified solution (glycerol: water=6:4; −55° C.).

[3] = background statement on known luminophores; cited from earlier work

| Compound | Stokes' shift [1] [nm] | emission maximum [1] [nm] | excitation maximum [1] [nm] | luminescence lifetime [1] | excitation maximum ([1]; listed as SVR) [nm] | luminescence lifetime ([1]; listed as SVR) [ns] | extinction coefficient E(SVR) ([1]; used with A479 for dye concentration) | fundamental anisotropy r0 [2] | fundamental anisotropy r0 ([2]; listed as SVR) | intrinsic polarization P0 [2] | intrinsic polarization P0 ([2]; listed as SVR) | luminescence lifetime (general statement) [3] |
| --- | --- | --- | --- | --- | --- | --- | --- | --- | --- | --- | --- | --- |
| Ru(bpy)2(dacbpy)-ITC [Sunnyvale Red™] | ~200 | 670 | 488 | about 360 ns | 487 | 360 | ~15,000 | about 0.28 | 0.27 | about 0.37 | 0.36 | – |
| O=C([O-])c1ccnc(-c2cc(C(=O)[O-])ccn2)c1.[Ru+2].c1ccc(-c2ccccn2)nc1.c1ccc(-c2ccccn2)nc1 [Ru(bpy)2dcbpy, ruthenium 2,2′-dibipyridyl 4,4′-dicarboxyl-2,2′-bipyridine] | – | – | – | – | – | – | – | – | – | – | – | roughly 400 nanoseconds |

From patent US20010021514A1, “Luminescent metal-ligand complexes” (priority 1999, published 2001)
